Measured values: patent publication US20240317727A1 (Duke University, priority 2018, published 2024)

Legend:
SNB-19 = assay: NCI60 cell growth and viability: SNB-19; type: cell-based; settings: SNB-19, CNS Cancer, two days
[1] = target: T1, recombinant HSF1 DNA-binding domain (DBD) (Homo sapiens, UniProt Q00613); assay: Differential Scanning Fluorimetry (DSF), HSF1 DBD melting temperature
T1 sequence (Q00613 15-120): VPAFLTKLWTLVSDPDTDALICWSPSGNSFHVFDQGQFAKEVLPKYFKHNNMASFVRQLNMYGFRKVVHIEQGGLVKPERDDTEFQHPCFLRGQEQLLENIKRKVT

[2] = system: C4/2 scramble and HSF1-knockdown cell lines; assay: C4/2 scramble vs HSF1-knockdown cell line; type: cell-based, human
Method: GAPDH was used as a loading control. […] Hsp70 is a gene activated by HSF1 and STAT6 is a gene repressed by HSF1. […] Shown is the solvent (DMSO) or two concentrations of Compound 0017 at 2.5 and 5 μM. ns=not significant; *=P<0.05; **=P<0.01 in accordance with one embodiment of the present disclosure.

A549/ATCC = assay: NCI60 cell growth and viability: A549/ATCC; type: cell-based; settings: Non-Small Cell Lung Cancer, two days
CCRF-CEM = assay: NCI60 cell growth and viability: CCRF-CEM; type: cell-based; settings: Leukemia, two days
OVCAR-5 = assay: NCI60 cell growth and viability: OVCAR-5; type: cell-based; settings: OVCAR-5, Ovarian Cancer, two days
BT-549 = assay: NCI60 cell growth and viability: BT-549; type: cell-based; settings: BT-549, Breast Cancer, two days
SR = assay: NCI60 cell growth and viability: SR; type: cell-based; settings: Leukemia, two days
LOX IMVI = assay: NCI60 cell growth and viability: LOX IMVI; type: cell-based; settings: Melanoma, two days
RPMI-8226 = assay: NCI60 cell growth and viability: RPMI-8226; type: cell-based; settings: RPMI-8226, Leukemia, two days
UACC-257 = assay: NCI60 cell growth and viability: UACC-257; type: cell-based; settings: UACC-257, Melanoma, two days
[3] = system: cancer cell lines in the NCI60 collection; assay: NCI60 collection, cell growth and viability (overall); type: cell-based; settings: incubated for two days, FIG. 8
Method: FIG. 8 is a graph showing the compounds of the disclosure suppress the growth of a broad range of cancer types. […] The cancer origins of the different cell lines are indicated with different colors.
HSF1 binding compounds were tested for its activity in suppressing the growth of a broad range of cancer types. For example, Compound 0017 was incubated for two days with a diverse series of cancer cell lines in the NCI60 collection and cell growth and viability were measured, and the results are shown in Table 4.

OVCAR-8 = assay: NCI60 cell growth and viability: OVCAR-8; type: cell-based; settings: OVCAR-8, Ovarian Cancer, two days
SF-295 = assay: NCI60 cell growth and viability: SF-295; type: cell-based; settings: SF-295, CNS Cancer, two days
MDA-MB-435 = assay: NCI60 cell growth and viability: MDA-MB-435; type: cell-based; settings: MDA-MB-435, Melanoma, two days
MALME-3M = assay: NCI60 cell growth and viability: MALME-3M; type: cell-based; settings: Melanoma, two days
HT29 = assay: NCI60 cell growth and viability: HT29; type: cell-based; settings: HT29, Colon Cancer, two days
SW-620 = assay: NCI60 cell growth and viability: SW-620; type: cell-based; settings: SW-620, Colon Cancer, two days
HL-60(TB) = assay: cells; type: cell-based; settings: Leukemia, two days
DU-145 = assay: NCI60 cell growth and viability: DU-145; type: cell-based; settings: DU-145, Prostate Cancer, two days
SK-MEL-2 = assay: NCI60 cell growth and viability: SK-MEL-2; type: cell-based; settings: SK-MEL-2, Melanoma, two days
[4] = 7-week Maximal Tolerated Dose (MTD) study in mice; type: in vivo; settings: 25 mpk three times per week, intra-peritoneal, 7 weeks
[5] = Homo sapiens, 48 h, read-out: log10 [GI50 (M)] (converted)
[6] = Homo sapiens, 48 h, read-out: log10 [LC50 (M)] (converted)

Which GI50 (SNB-19; [5]) does the source give for `O=C(Nc1ccc(F)cc1)Nc1ccc(Cl)c([N+](=O)[O-])c1` [Compound 0017, 1-(4-chloro-3-nitrophenyl)-3-(4-fluorophenyl)urea] here?
The GI50 was 3.55e-06 M.

And the CC50 (SNB-19; [6])?
Its CC50 is 4.68e-05 M.

What about the “log10 [TGI (M)]” value (SNB-19) of the same compound?
The value was −4.84 log10 M.

And the ΔTm at 25 µM ([1]; Table 1, 5 μM HSF1 DBD, 25PM Compound, positive = stabilizes, negative = destabilizes HSF1)?
Its ΔTm at 25 µM is 3 °C.

What about the “binding to HSF1” value ([1]; thermal denaturation assay) of the same compound?
The value was “binds HSF1”.

And the “cell viability, HSF1-expressing vs HSF1-knockdown C4/2 cells” value ([2]; 2.5 and 5 μM, FIG. 5C)?
The value was “preferentially reduces cell viability”.

What about the “Hsp70 and STAT6 expression” value ([2]; 48-hour treatment, in C4/2 scramble cell line, but not in HSF1-knockdown cell line, FIG. 5B) of the same compound?
The value was “inhibition of Hsp70 expression and de-repression of STAT6”.

And the GI50 (A549/ATCC; [5])?
Its GI50 is 3.09e-06 M.

What about the CC50 (A549/ATCC; [6]) of the same compound?
Its CC50 is at least 0.0001 M.

What about the “log10 [TGI (M)]” value (A549/ATCC) of the same compound?
Its value is −4.79 log10 M.

What about the GI50 (CCRF-CEM; [5]) of the same compound?
Its GI50 is 3.31e-06 M.

And the CC50 (CCRF-CEM; [6])?
Its CC50 is at least 0.0001 M.

And the “log10 [TGI (M)]” value (CCRF-CEM)?
Its value is −4.00 log10 M.

And the GI50 (OVCAR-5; [5])?
The GI50 was 3.55e-06 M.

And the CC50 (OVCAR-5; [6])?
Its CC50 is 6.46e-05 M.

And the “log10 [TGI (M)]” value (OVCAR-5)?
The value was −4.83 log10 M.

And the “log10 [TGI (M)]” value (BT-549)?
Its value is −4.97 log10 M.

What about the GI50 (BT-549; [5]) of the same compound?
The GI50 was 2.88e-06 M.

What about the CC50 (BT-549; [6]) of the same compound?
Its CC50 is 3.31e-05 M.

What about the GI50 (SR; [5]) of the same compound?
The GI50 was 3.39e-06 M.

And the CC50 (SR; [6])?
Its CC50 is at least 0.0001 M.

What about the “log10 [TGI (M)]” value (SR) of the same compound?
Its value is −4.00 log10 M.

And the GI50 (LOX IMVI; [5])?
Its GI50 is 3.55e-06 M.

And the CC50 (LOX IMVI; [6])?
Its CC50 is 4.07e-05 M.

What about the “log10 [TGI (M)]” value (LOX IMVI) of the same compound?
The value was −4.91 log10 M.

What about the GI50 (RPMI-8226; [5]) of the same compound?
Its GI50 is 1.91e-06 M.

And the CC50 (RPMI-8226; [6])?
The CC50 was at least 0.0001 M.

And the “log10 [TGI (M)]” value (RPMI-8226)?
Its value is −5.07 log10 M.

And the GI50 (UACC-257; [5])?
The GI50 was 2.75e-06 M.

And the CC50 (UACC-257; [6])?
Its CC50 is 3.09e-05 M.

And the “log10 [TGI (M)]” value (UACC-257)?
The value was −5.05 log10 M.

What about the “growth of a broad range of cancer cells” value [3] of the same compound?
Its value is “inhibited the growth of a broad range of cancer cells”.

What about the GI50 (OVCAR-8; [5]) of the same compound?
Its GI50 is 2.95e-06 M.

And the CC50 (OVCAR-8; [6])?
Its CC50 is at least 0.0001 M.

What about the “log10 [TGI (M)]” value (OVCAR-8) of the same compound?
The value was −4.82 log10 M.

And the GI50 (SF-295; [5])?
Its GI50 is 2.29e-06 M.

And the CC50 (SF-295; [6])?
The CC50 was 3.09e-05 M.

What about the “log10 [TGI (M)]” value (SF-295) of the same compound?
The value was −5.10 log10 M.

And the GI50 (MDA-MB-435; [5])?
The GI50 was 3.09e-06 M.

And the CC50 (MDA-MB-435; [6])?
The CC50 was 4.37e-05 M.

And the “log10 [TGI (M)]” value (MDA-MB-435)?
The value was −4.94 log10 M.

What about the GI50 (MALME-3M; [5]) of the same compound?
Its GI50 is 2.34e-06 M.

What about the CC50 (MALME-3M; [6]) of the same compound?
The CC50 was 2.95e-05 M.

What about the “log10 [TGI (M)]” value (MALME-3M) of the same compound?
The value was −5.14 log10 M.

What about the “log10 [TGI (M)]” value (HT29) of the same compound?
The value was −4.91 log10 M.

And the GI50 (HT29; Homo sapiens, HT-29, 48 h, read-out: log10 [GI50 (M)] (converted))?
The GI50 was 3.24e-06 M.

What about the CC50 (HT29; Homo sapiens, HT-29, 48 h, read-out: log10 [LC50 (M)] (converted)) of the same compound?
The CC50 was 5.37e-05 M.

And the GI50 (SW-620; [5])?
The GI50 was 3.47e-06 M.

What about the CC50 (SW-620; [6]) of the same compound?
Its CC50 is 4.79e-05 M.

And the “log10 [TGI (M)]” value (SW-620)?
The value was −4.86 log10 M.

What about the GI50 (HL-60(TB); [5]) of the same compound?
The GI50 was 2.51e-06 M.

And the CC50 (HL-60(TB); [6])?
The CC50 was at least 0.0001 M.

And the “log10 [TGI (M)]” value (HL-60(TB))?
Its value is −5.07 log10 M.

What about the “log10 [TGI (M)]” value (DU-145) of the same compound?
The value was −4.67 log10 M.

What about the GI50 (DU-145; [5]) of the same compound?
The GI50 was 4.47e-06 M.

And the CC50 (DU-145; [6])?
Its CC50 is at least 0.0001 M.

What about the GI50 (SK-MEL-2; [5]) of the same compound?
Its GI50 is 2.34e-06 M.

And the CC50 (SK-MEL-2; [6])?
Its CC50 is 2.51e-05 M.

What about the “log10 [TGI (M)]” value (SK-MEL-2) of the same compound?
The value was −5.23 log10 M.

What about the tolerability [4] of the same compound?
The tolerability was “well tolerated”.
